In brackets after ≈: the same amount, converted by molar mass. Activity calls are given as the source filed them. The rule behind the calls is not given here.
Columns and labels:
[1] = target: T1, Enoyl-[acyl-carrier-protein] reductase [NADH] FabI (Escherichia coli K-12) (UniProt P0AEK4); experiment: Inhibition of Escherichia coli MG1655 enoyl-ACP reductase overexpressed in Escherichia coli M15 assessed as oxidation of NADH to NAD+ at 5 uM after 5 mins
T1 sequence (whole entry): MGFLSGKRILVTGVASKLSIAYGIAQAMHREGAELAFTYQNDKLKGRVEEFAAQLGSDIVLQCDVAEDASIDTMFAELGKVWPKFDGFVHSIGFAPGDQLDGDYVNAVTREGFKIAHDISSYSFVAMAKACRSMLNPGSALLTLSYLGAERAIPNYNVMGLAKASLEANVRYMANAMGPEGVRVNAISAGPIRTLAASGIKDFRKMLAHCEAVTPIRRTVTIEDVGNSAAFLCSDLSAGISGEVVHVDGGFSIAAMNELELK

Escherichia coli [2] = experiment: Antibacterial activity against Escherichia coli M15 containing pQE30 expression vector; assay type: functional
Escherichia coli [3] = experiment: Antibacterial activity against Escherichia coli MG1655; assay type: functional
Escherichia coli [4] = experiment: Antibacterial activity against fabI-overexpressing Escherichia coli M15; assay type: functional
Escherichia coli [5] = experiment: Antibacterial activity against Escherichia coli M15; assay type: functional
[6] = target: T1, Enoyl-[acyl-carrier-protein] reductase [NADH] FabI (Escherichia coli K-12); experiment: Uncompetitive inhibition of Escherichia coli MG1655 enoyl-ACP reductase overexpressed in Escherichia coli M15 assessed as oxidation of NADH to NAD+ after 5 mins by Lineweaver-Burke plot
Escherichia coli [7] = experiment: Ratio of MIC90 for fabI-overexpressing Escherichia coli M15 to MIC90 for Escherichia coli M15; assay type: functional
[8] = target: T2, Enoyl-[acyl-carrier-protein] reductase [NADH] FabI (Escherichia coli K-12, UniProt P0AEK4); experiment: Inhibition of Escherichia coli MG1655 enoyl-ACP reductase overexpressed in Escherichia coli M15 assessed as oxidation of NADH to NAD+ after 5 mins
T2 sequence (P0AEK4 whole entry): T1 sequence (whole entry)

Escherichia coli [9] = experiment: Ratio of MIC90 for fabI-overexpressing Escherichia coli M15 to MIC90 for Escherichia coli M15 containing pQE30 expression vector; assay type: functional

| Compound | Activity [1] | MIC90 (Escherichia coli [2]) [µg/mL] | MIC90 (Escherichia coli [3]) [µg/mL] | MIC90 (Escherichia coli [4]) [µg/mL] | MIC90 (Escherichia coli [5]) [µg/mL] | Activity [6] | Ratio (Escherichia coli [7]) | Ki [8] [µM] | Ratio (Escherichia coli [9]) |
| --- | --- | --- | --- | --- | --- | --- | --- | --- | --- |
| CC(C)=CCOc1c2occc2cc2ccc(=O)oc12 | Active |  |  |  |  |  |  |  |  |
| OC[C@H]1O[C@@H](Oc2cc(O)cc(/C=C/c3ccc(O)cc3)c2)[C@H](O)[C@@H](O)[C@@H]1O | Active |  |  |  |  |  |  |  |  |
| O=C(N[C@H](CO)[C@H](O)c1ccc([N+](=O)[O-])cc1)C(Cl)Cl [CHLORAMPHENICOL] |  | 8 (≈ 24.8 µM) | 8 (≈ 24.8 µM) | 8 (≈ 24.8 µM) | 8 (≈ 24.8 µM) |  |  |  |  |
| COc1cc(/C=C/C(=O)CC(=O)/C=C/c2ccc(O)c(OC)c2)ccc1O [CURCUMIN] |  | 73.7 (≈ 200 µM) | 73.7 (≈ 200 µM) | > 500 | 73.7 (≈ 200 µM) | Active | 7 | 15 | 7 |
| CC[C@H]1OC(=O)[C@H](C)[C@@H](O[C@H]2C[C@@](C)(OC)[C@@H](O)[C@H](C)O2)[C@H](C)[C@@H](O[C@@H]2O[C@H](C)C[C@H](N(C)C)[C@H]2O)[C@](C)(O)C[C@@H](C)C(=O)[C@H](C)[C@@H](O)[C@]1(C)O [ERYTHROMYCIN] |  | 16 (≈ 21.8 µM) | 16 (≈ 21.8 µM) | 16 (≈ 21.8 µM) | 16 (≈ 21.8 µM) |  |  |  |  |
| O=c1c(-c2ccc(O)cc2)coc2cc(O)cc(O)c12 [GENISTEIN] | Active | 378 (≈ 1400 µM) | 378 (≈ 1400 µM) | > 500 | 378 (≈ 1400 µM) |  |  |  |  |
| O=c1cc(-c2ccc(O)c(O)c2)oc2cc(O)cc(O)c12 [LUTEOLIN] |  |  |  |  |  | Active |  | 7.05 |  |
| CO[C@H]1/C=C/O[C@@]2(C)Oc3c(C)c(O)c4c(O)c(c(/C=N/N5CCN(C)CC5)c(O)c4c3C2=O)NC(=O)/C(C)=C\C=C\[C@H](C)[C@H](O)[C@@H](C)[C@@H](O)[C@@H](C)[C@H](OC(C)=O)[C@@H]1C [RIFAMPIN] |  | 128 (≈ 156 µM) | 128 (≈ 156 µM) | 128 (≈ 156 µM) | 128 (≈ 156 µM) |  |  |  |  |
| CN[C@@H]1[C@H](O)[C@H](NC)[C@H]2O[C@@]3(O)C(=O)C[C@@H](C)O[C@H]3O[C@@H]2[C@H]1O [SPECTINOMYCIN] |  | 20 (≈ 60.2 µM) | 20 (≈ 60.2 µM) | 20 (≈ 60.2 µM) | 20 (≈ 60.2 µM) |  |  |  |  |
| Oc1cc(Cl)ccc1Oc1ccc(Cl)cc1Cl [TRICLOSAN] |  | 2.9 (≈ 10 µM) | 2.9 (≈ 10 µM) | > 500 | 2.9 (≈ 10 µM) |  |  |  |  |
| GENTAMICIN |  | 8 | 8 | 8 | 8 |  |  |  |  |

— ChEMBL document CHEMBL1153182, “Novel enoyl-ACP reductase (FabI) potential inhibitors of Escherichia coli from Chinese medicine monomers” (Bioorg Med Chem Lett, 2010)
